Results as given in US4048334A, “Active derivatives of methylamino in therapeutic compositions and methods of use” (priority 1974, dated 1977).
Entries after “also recorded” stand apart in the source; their conditions may differ.

Experiments:
[1] = test system: neuroleptic-induced catatonia; experiment: Suppression of neuroleptic-induced catatonia (curative treatment, prochlorperazine); format: in vivo, rat (male, OFA strain); details: for catatonia score (5 rats per batch): 5 mg/kg oral
Procedure: b. Suppression of neuroleptic-induced catatonia
Batches of 5 male rats of the OFA strain were given 12.5 mg/kg of prochlorperazine by intraperitoneal route. Fifty-five minutes later, an oral dose in aqueous solution of the compound to be studied was administered to all the animals with the exception of the control group. The progress of the catatonia was noted following the same scale as that used in the tests described above.

[2] = test system: peripheral noradrenergic phenomena (arterial pressure, nictitating membrane); experiment: Influence on peripheral noradrenergic phenomena (norepinephrine, arterial pressure and nictitating membrane)
Emetic action = format: in vivo; details: dog, any dose
Description: Furthermore, the compounds of the invention have no emetic action in the dog at any doses and are not cholinolytic agents.

electrocardiogram = experiment: Effect on the electrocardiogram; format: in vivo; details: dog, in vivo; listed as preferred compound of the invention
[3] = test system: reserpine-induced catatonia; experiment: Inhibition of reserpine-induced catatonia; format: in vivo, rat (male, OFA strain)
Procedure: 1. Inhibition of reserpine-induced catatonia
After sufficient doses of reserpine have been administered to the rat, a series of symptoms occur, more particularly ptosis, catatonia and a drop in central temperature. These symptoms are caused by the depletion of the intragranular reserve pool of boigenetic amines at the synaptic terminals.
An oral dose of the compound to be studied in aqueous solution was administered to batches of 10 male rats of the OFA strain weighing about 150 to 200 g. Thirty minutes later a dose of 5 mg/kg of reserpine was given by intraperitoneal route. Three hours after the injection of reserpine, the animals were suspended by the four paws to a horizontally stretched wire fixed at 15 cm from the ground. The catatonic animals were those which maintained the position so given for at least 30 seconds. […] The maximum score was therefore 10 per batch. An identical trial was undertaken with control animals which received reserpine but none of the compounds being studied.

[4] = test system: reserpine-induced catatonia; experiment: Suppression of reserpine-induced catatonia (curative treatment); format: in vivo, rat (male, OFA strain); design: key to catatonia score (maximum 5 per batch): number of animals (of 5) still in catatonia; max 5 per batch
Procedure: a. Suppression of reserpine-induced catatonia
Batches of 5 male rats of the OFA strain, weighing 150 to 200 g were given 5 mg/kg of reserpine by intraperitoneal route. One hour and 45 minutes later, namely when the animals were in a state of catatonia, an aqueous dose of the compound to be studied was administered by oral route to all the animals with the exception of the control group.
The progress of the catatonia was then noted following the scale used in the tests described hereabove.
The maximum score was thus 5 per batch which means that all the animals of the batch were considered to be still in a state of catatonia.

catalepsy = experiment: Inhibition of catalepsy (crossing of homolateral paws, prochlorperazine); format: in vivo, rat; details: 5 mg/kg oral, 30 min before prochlorperazine i.p., 3 hours after
Procedure: Additional trials were carried out on rats with Compound 1 and amantadine. These trials involved catalepsy as evidenced by the crossing of the animals' homolateral paws.

[5] = Spasmolytic / cholinolytic (anticholinergic) activity in vivo or unspecified; details: at antiparkinsonian doses well below the toxic dose
[6] = test system: tremorine-induced cholinergic effects; experiment: Anti-tremorine test (cholinolytic properties in vivo); design: species or system mice (male, OF1 strain); key to peripheral cholinergic effects score (salivation, sweating, weeping): 0: no action; 1: slight action; 2: average action; 3: strong action; 4: very strong action
Procedure: For this purpose, the following test was performed with a view to determining the anti-tremorine properties of Compound 1.
When injected into mice, tremorine produces peripheral effects i.e. weeping, sweating, salivation and diarrhoea and central effects i.e. tremor and akinesia. Such effects are due to an increase in the amount of intracerebral acetylcholine and serotonine.
Male mice of the OF1 strain weighing about 22 g were divided into batches of 10. […] Thirty minutes later a dose of 10 mg/kg of tremorine was injected by intraperitoneal route and, at different times after this injection, note was taken of the cholinergic effects on each animal in accordance with the following scale: […]

[7] = test system: reserpine-induced and neuroleptic-induced catatonia and catalepsy; experiment: Central noradrenergic and dopaminergic properties (general statement); details: in vivo
Description: These latter properties manifest themselves by an inhibitory action on reserpine-induced and neuroleptic-induced catatonia and catalepsy.

[8] = test system: isolated duodenum of the rat; experiment: MAGNUS test: inhibition of acetylcholine spasm (cholinolytic / spasmolytic activity in vitro)
Description: This test consists in determining the dose of acetylcholine which, when added to the bath, provokes spasm of the isolated duodenum of the rat. The next step consists in determining the dose of the compound under study which, when added to the bath 30 seconds before the acetylcholine, reduces the spasm.

[9] = SPERBER et al., J. Amer. Chem. Soc., 71, 3352 (1949); cited from earlier work
in vivo = details: mouse, mice, oral, aqueous solution, 10 days observation

CCCC(N)(CCC)CCC [Compound 1]
catatonia score (5 rats per batch) ([1]; 1h30 after prochlorperazine): 3 | catatonia score (5 rats per batch) ([1]; 2h30 after prochlorperazine): 0 | catatonia score (5 rats per batch) ([1]; 3h30 after prochlorperazine): 0 | catatonia score (5 rats per batch) ([1]; 3h after prochlorperazine): 0 | catatonia score (5 rats per batch) ([1]; 4h after prochlorperazine): 0 | catatonia score (5 rats per batch) ([1]; 5h after prochlorperazine): 0 | rapidity of action against neuroleptic-induced catatonia ([1]; 5 mg/kg versus amantadine 80 mg/kg): acts against neuroleptic-induced catatonia more rapidly than does a dose of 80 mg/kg of amantadine | times more active than amantadine, neuroleptic-induced catatonia, curative treatment ([1]; versus amantadine): at least 16 times | Contractile reaction of the nictitating membrane with electric stimulation ([2]; cumulative dose 0.1 mg/kg i.v.): 15 mm | Contractile reaction of the nictitating membrane without electric stimulation ([2]; cumulative dose 0.1 mg/kg i.v.): 0 mm | Increase in arterial pressure after injection of norepinephrine ([2]; cumulative dose 0.1 mg/kg i.v.): 18 mm Hg | Contractile reaction of the nictitating membrane with electric stimulation ([2]; cumulative dose 1 mg/kg i.v.): 16 mm | Contractile reaction of the nictitating membrane without electric stimulation ([2]; cumulative dose 1 mg/kg i.v.): 0 mm | Increase in arterial pressure after injection of norepinephrine ([2]; cumulative dose 1 mg/kg i.v.): 25 mm Hg | Contractile reaction of the nictitating membrane with electric stimulation ([2]; cumulative dose 3 mg/kg i.v.): 17 mm | Contractile reaction of the nictitating membrane without electric stimulation ([2]; cumulative dose 3 mg/kg i.v.): 0 mm | Increase in arterial pressure after injection of norepinephrine ([2]; cumulative dose 3 mg/kg i.v.): 29 mm Hg | Contractile reaction of the nictitating membrane with electric stimulation ([2]; cumulative dose 5 mg/kg i.v.): 16 mm | Contractile reaction of the nictitating membrane without electric stimulation ([2]; cumulative dose 5 mg/kg i.v.): 0 mm | Increase in arterial pressure after injection of norepinephrine ([2]; cumulative dose 5 mg/kg i.v.): 25 mm Hg | Contractile reaction of the nictitating membrane with electric stimulation ([2]; cumulative dose 10 mg/kg i.v.): 12 mm | Contractile reaction of the nictitating membrane without electric stimulation ([2]; cumulative dose 10 mg/kg i.v.): 0 mm | Increase in arterial pressure after injection of norepinephrine ([2]; cumulative dose 10 mg/kg i.v.): 22 mm Hg | ganglioplegic action ([2]; in vivo): is not a ganglioplegic agent | potentiation of (peripheral) effects of norepinephrine ([2]; in vivo): does not potentiate the effects either of exogenous norepinephrine or of endogenous norepinephrine | potentiation of (peripheral) effects of norepinephrine ([2]; in vivo, listed as preferred compound of the invention): does not potentiate the peripheral effects of norepinephrine | emetic action (Emetic action): devoid of emetic properties | effect on the electrocardiogram (electrocardiogram): does not cause any undesirable effect on the electrocardiogram; also recorded: devoid of emetic properties and of undesirable side-effects on the electrocardiogram | Inhibition of reserpine-induced catatonia ([3]; 5 mg/kg oral, 30 min before reserpine 5 mg/kg i.p.): 4 (100% inhibition of catatonia in comparison with the controls (namely a score of 0 per studied batch)) | activity (dose) compared with amantadine, reserpine-induced catatonia ([3]; versus amantadine): as active as amantadine but at a dose which is twenty times inferior to that of amantadine | catatonia score (maximum 5 per batch) ([4]; 2.5 mg/kg oral, 2h15 after reserpine): 3 | catatonia score (maximum 5 per batch) ([4]; 2.5 mg/kg oral, 2h30 after reserpine): 2 | catatonia score (maximum 5 per batch) ([4]; 2.5 mg/kg oral, 3h30 after reserpine): 0 | catatonia score (maximum 5 per batch) ([4]; 2.5 mg/kg oral, 2h after reserpine): 4 | catatonia score (maximum 5 per batch) ([4]; 2.5 mg/kg oral, 3h after reserpine): 0 | catatonia score (maximum 5 per batch) ([4]; 2.5 mg/kg oral, 4h after reserpine): 0 | catatonia score (maximum 5 per batch) ([4]; 2.5 mg/kg oral, 5h after reserpine): 0 | catatonia score (maximum 5 per batch) ([4]; 5 mg/kg oral, 2h15 after reserpine): 1 | catatonia score (maximum 5 per batch) ([4]; 5 mg/kg oral, 2h30 after reserpine): 0 | catatonia score (maximum 5 per batch) ([4]; 5 mg/kg oral, 3h30 after reserpine): 0 | catatonia score (maximum 5 per batch) ([4]; 5 mg/kg oral, 2h after reserpine): 5 | catatonia score (maximum 5 per batch) ([4]; 5 mg/kg oral, 3h after reserpine): 0 | catatonia score (maximum 5 per batch) ([4]; 5 mg/kg oral, 4h after reserpine): 0 | catatonia score (maximum 5 per batch) ([4]; 5 mg/kg oral, 5h after reserpine): 0 | rapidity of suppression of reserpine-induced catatonia ([4]; 2.5 and 5 mg/kg oral versus amantadine 80 mg/kg): suppresses reserpine-induced catatonia more rapidly than a dose of 80 mg/kg of amantadine | times more active than amantadine, reserpine-induced catatonia, curative treatment ([4]; versus amantadine): at least 32 times | inhibition of the catalepsy (catalepsy): complete inhibition of the catalepsy | spasmolytic activity in vivo [5]: non-existent | peripheral cholinergic effects score (salivation, sweating, weeping) ([6]; 5 mg/kg oral, 20, 30 and 40 minutes after tremorine 10 mg/kg i.p.): 4 | central cholinergic effects (normal and provoked tremor) ([6]; 5 mg/kg oral, identical to the peripheral score (4)): Identical results | antitremorine properties ([6]; mouse, in vivo): devoid of antitremorine properties | degree of activity [7]: marked degree of activity | spasmolytic activity in vitro [8]: very weak, in fact practically non-existent | % of inhibition of the spasm ([8]; 0.1 × 10^-3 g/ml of bath): 0% | % of inhibition of the spasm ([8]; 0.1 × 10^-4 g/ml of bath): 0% | % of inhibition of the spasm ([8]; 0.1 × 10^-5 g/ml of bath): 0% | % of inhibition of the spasm ([8]; 0.2 × 10^-2 g/ml of bath): 36% | % of inhibition of the spasm ([8]; 0.2 × 10^-6 g/ml of bath): 0% | % of inhibition of the spasm ([8]; 0.5 × 10^-2 g/ml of bath): 60% | cholinolytic activity in vitro ([8]; in comparison with atropine): virtually non-existent | spasmolytic activity and toxicity versus corresponding trialkylethylamines [9]: less spasmolytic and more toxic than the corresponding trialkylethylamines | LD50 at 240 h (in vivo): 100 mg/kg
